Laboratory results as given in publication PMC11649397, “The study of halogen effect on the reactivity of the serine-targeting covalent warheads” (Frontiers in Chemistry, 2024).

Target: T1, hCES1A (Homo sapiens, UniProt P23141)
T1 sequence (P23141 18-567): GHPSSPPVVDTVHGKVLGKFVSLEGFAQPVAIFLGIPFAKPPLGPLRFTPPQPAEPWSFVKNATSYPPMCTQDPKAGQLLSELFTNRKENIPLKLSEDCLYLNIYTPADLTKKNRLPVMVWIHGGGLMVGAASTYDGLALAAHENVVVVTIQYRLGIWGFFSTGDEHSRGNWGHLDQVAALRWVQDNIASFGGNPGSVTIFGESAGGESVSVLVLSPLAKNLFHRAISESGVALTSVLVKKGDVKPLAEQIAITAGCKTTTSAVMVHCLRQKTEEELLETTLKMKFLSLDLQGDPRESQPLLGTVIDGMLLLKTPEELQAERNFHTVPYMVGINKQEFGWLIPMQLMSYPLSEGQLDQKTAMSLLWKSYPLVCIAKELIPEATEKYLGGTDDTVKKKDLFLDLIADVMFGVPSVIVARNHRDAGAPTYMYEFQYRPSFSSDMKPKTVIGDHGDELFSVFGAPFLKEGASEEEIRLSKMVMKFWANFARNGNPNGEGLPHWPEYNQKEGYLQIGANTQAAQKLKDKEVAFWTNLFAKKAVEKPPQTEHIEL
Assay: Co-crystallography with hCES1A
Format: binding
Settings: 1:5 molar ratio
Experimental: Purified hCES1A incubated with F-3 and F-4 at 1:5 M ratio for 1 h at 18°C. Crystallisation screening was performed using commercially available kit sets using sitting drop vapor diffusion at 16°C. Both diffraction-quality crystals were obtained from the condition containing 14.4% peg8000 (w/v), 0.1M MES 6.4, 0.3M CaAc and 20% glycerol. Crystals were flash cooled in liquid nitrogen after cryoprotection in 25% glycerin. Date was collected on 02U1 at Shanghai Synchrotron Radiation Facility (SSRF). Data images were processed using program HKL2000. ([Otwinowski and Minor, 1997]). Crystal structures were solved using molecular replacement with the Phenix software suite using unbound hces1a (Protein Data Bank [PDB] accession number 1MX1 as the search model. Structure refinement was performed using Phenix. ([Adams et al., 2010]). The program COOT was used for manual rebuilding. ([Emsley and Cowtan, 2004]). Molecular graphics images were generated using CCP4MG. ([McNicholas et al., 2011]). […]
fluorogenic probe. 4 Briefly, the incubation mixtures (0.1 mL) contained Tris-HCl buffer, hPL solution (0.25 μg/mL, final concentration), porcine bile salt (0.1 mg/mL, final concentration) and each inhibitor (with different concentrations). […] The fluorescent signals of hydrolytic product were quantified by using the microplate reader (Spectra Max M4, Austria), with the wavelength of 600 nm and 660 nm for excitation and emission, respectively. […]
OPTS, a known fluorogenic probe, was used as the substrate to assess the residual activities of Notum in the presence of each tested compound. […] After preincubated at 37 °C for 1 min, OPTS was added to initiate the hydrolytic reaction and the multi-mode microplate reader (SpectraMax iD3, Molecular Devices, Austria) was used to analyze the florescence signals of the […]
The F-3, F-4, F-10-bound peptides was analysed using the nanoLC-MS/MS system, respectively.6 The purified hCES1A (150 μg, final content) was co-incubated with the small molecule inhibitor F-3/ F-4/ F-10 (100 μM, final concentration) at 4 °C and 25 °C, respectively, for 4h. […]

O=C(c1ccccc1)C(F)(F)F [F, 2,2,2-trifluoroacetophenone]
covalent binding mode at the catalytic triad (Ser221) in co-crystal: failed to result in similar covalent interactions
